Key:
HCV GT1b replicon cells = assay: HCV replicon assay, GT1b replicon cells (luciferase reporter / NEO gene qPCR); type: cell-based; settings: EC50 range against HCV 1b genotype, 72 hours incubation
Description: (§1) An HCV Replicon assay was utilized in the present disclosure, and was prepared, developed and validated as described in Science, 1999, 285 (5424), 110-3 and J. Virol., 2003, 77 (5), 3007-19.
(§2) HCV GT1a, GT1b and GT2a replicon cells were used to test the currently described compound series as well as wild-type cells HCV 1b and resistant cells Y93H, L31F, P32L and 1302V. GT1a, GT1b and GT2a are HCV Replicon System which is transfected HCV 1a, 1b, 2a genotype respectively. The system containing G418 resistance gene NEO and Luciferase Reporter Gene can be used to determine the level of HCV replication, and evaluate the effects of the compounds inhibiting HCV replication, by using a real-time quantitative polymerase chain reaction (qPCR) method to detect NEO, and chemiluminescence method to test Luciferase Reporter Gene.
(§3) 1. Testing EC50 of the Compounds by Luciferase Assay
(§4) The GT1a cells and GT1b cells were seeded into 96-well plates (8,000 cells in 125 μl/well) respectively; each compound was diluted to desired concentration using 5-fold serial dilutions protocol, 10 dose in duplicate, and added to wells with POD™ 810 Plate Assembler. The final concentration of DMSO was 0.5%; the plates were incubated in a CO2 incubator for 72 hours; after that, 40 μl of Luciferase assay substrate (Promega Bright-Glo) was added to each well, and detected by a chemiluminescence detection system (Topcount Microplate Scintillation and Luminescence Counter) 5 minutes later; data analysis.
(§5) 2. Testing EC50 of the Compounds by Detecting Antibiotic G418 Resistance Gene NEO Gene
(§6) The GT1a cells and GT1b cells were seeded into 96-well plates (8,000 cells in 125 μl/well) respectively; each compound was diluted to desired concentration using 5-fold serial dilutions protocol, 10 dose in duplicate, and added to wells with POD™ 810 Plate Assembler, the final concentration of DMSO was 0.5%; the cells were incubated in a CO2 incubator for 72 hours; quantitative PCR. • Sample preparation: the supernatant was removed, 100 μl of FCW buffer solution was added to each well, washed carefully and discarded the solution; 50 μl of lysate FCP was added to each well, the cells was lysed as PCR template and PCR template was diluted with DEPC water as sample template. • Quantitative PCR: preparation of reaction mixture according to PCR system; the reaction mixture was dispensed into a 384-well PCR reaction plate (specially for quantitative); and a standard template which was diluted in proportion was distributed into the plate; and the sample template was distributed into the plate; then the 384-well plate was sealed with closure plate membrane; the […] PCR machine was operated by procedures; data analysis.
(§7) 3. Data processing: EC50 values of compounds were analyzed by GRAPHPAD PRISM® software.

HCV GT1a replicon cells = assay: HCV replicon assay, GT1a replicon cells (luciferase reporter / NEO gene qPCR); type: cell-based; settings: Hepatitis C virus, GT1A, EC50 range against HCV 1a genotype, 72 hours incubation
Description: as §1, §2, §3, §4, §5, §6, §7

Row | Structure (SMILES) | EC50 (HCV GT1b replicon cells; Hepatitis C virus, GT1B, 72 h) [nM] | EC50 (HCV GT1a replicon cells) [nM] | EC50 (HCV GT1b replicon cells) [nM]
1 | COC(=O)N[C@H](C(=O)N1CCC[C@H]1C(=O)Nc1ccc(-c2ccc(-c3ccc(NC(=O)[C@@H]4CCCN4C(=O)[C@@H](NC(=O)OC)C(C)C)cc3)c3c2CC2(CCCC2)C3)cc1)C(C)C [Example 39] | 0.101 to 1 | 0.001 to 0.1 | 
2 | COC(=O)N[C@H](C(=O)N1CCC[C@H]1c1nc2ccc(-c3ccc(-c4ccc5nc([C@@H]6CCCN6C(=O)[C@@H](NC(=O)OC)C(C)C)[nH]c5c4)c4c3CC3(CCC(C)CC3)C4)cc2[nH]1)C(C)C [Example 4] | 0.001 to 0.1 | 0.001 to 0.1 | 
3 | CCC(=O)N[C@H](C(=O)N1CCC[C@H]1c1ncc(-c2ccc(-c3ccc(C#Cc4cnc([C@@H]5CCCN5C(=O)[C@@H](NC(=O)OC)C(C)C)[nH]4)c4c3CC3(CCCC3)C4)cc2)[nH]1)C(C)C [Example 24] | 0.001 to 0.1 | 0.001 to 0.1 | 
4 | CCC(C)[C@H](NC(=O)OC)C(=O)N1CCC[C@H]1c1nc2ccc(-c3ccc(-c4ccc(-c5cnc([C@@H]6CCCN6C(=O)[C@@H](NC(=O)OC)C(C)C)[nH]5)cc4)c4c3CC3(CCCC3)C4)cc2[nH]1 (stereo partly shown) [Example 11] | 0.001 to 0.1 | 0.001 to 0.1 | 
5 | COC(=O)N[C@H](C(=O)N1CC(F)(F)C[C@H]1c1ncc(-c2ccc(-c3ccc(-c4cnc([C@@H]5CC(F)(F)CN5C(=O)[C@@H](NC(=O)OC)C(C)C)[nH]4)c4c3CC3(CCCC3)C4)cc2)[nH]1)C(C)C [Example 15] | > 10 | 0.001 to 0.1 | 
6 | COC(=O)N[C@H](C(=O)N1CCC[C@H]1c1ncc(-c2ccc(-c3ccc(-c4ccc(-c5cnc([C@@H]6CCCN6C(=O)[C@@H](NC(=O)OC)C(C)C)[nH]5)cc4)c4c3CC3(CCCC3)C4)cc2)[nH]1)C(C)C [Example 38] | > 10 | 0.101 to 1 | 
7 | COC(=O)N[C@H](C(=O)N1CCC[C@H]1c1nc2ccc(-c3ccc(-c4ccc5nc([C@@H]6CCCN6C(=O)[C@@H](NC(=O)OC)C(C)C)[nH]c5c4)c4c3CC3(CCCCC3)C4=O)cc2[nH]1)C(C)C [Example 5] | 0.101 to 1 | 0.001 to 0.1 | 
8 | COC(=O)N[C@H](C(=O)N1CCC[C@H]1c1ncc(-c2ccc(-c3ccc(-c4cnc([C@@H]5CCCN5C(=O)[C@@H](NC(=O)OC)c5ccccc5)[nH]4)c4c3CC3(CCCC3)C4)cc2)[nH]1)c1ccccc1 [Example 16] | > 10 | 0.001 to 0.1 | 
9 | CCC(C)[C@H](NC(=O)OC)C(=O)N1C2CC2C[C@H]1c1ncc(-c2ccc(-c3ccc(-c4cnc([C@@H]5CC6CC6N5C(=O)[C@@H](NC(=O)OC)C(C)CC)[nH]4)c4c3CC3(CCCC3)C4)cc2)[nH]1 (stereo partly shown) [Example 43] | > 10 | 0.001 to 0.1 | 
10 | COC(=O)N[C@H](C(=O)N1CC2(CC2)C[C@H]1c1ncc(-c2ccc(-c3ccc(-c4ccc(-c5cnc([C@@H]6CC7(CC7)CN6C(=O)[C@@H](NC(=O)OC)C(C)C)[nH]5)cc4)c4c3CC3(CCCC3)C4)cc2)[nH]1)C(C)C [Example 41] | > 10 | 1 to 10 | 
11 | COC(=O)N[C@H](C(=O)N1CCC[C@H]1c1nc(-c2ccc(-c3ccc(-c4ccc(-c5cnc([C@@H]6CCCN6C(=O)[C@@H](NC(=O)OC)C(C)C)[nH]5)cc4)c4c3C(=O)C3(CCCC3)C4)cc2)c[nH]1)C(C)C [Example 1] | 1 to 10 | 0.001 to 0.1 | 
12 | COC(=O)N[C@H](C(=O)N1CCC[C@H]1c1ncc(-c2ccc(-c3ccc(-c4ccc5nc([C@@H]6CCCN6C(=O)[C@@H](NC(=O)OC)C(C)C)[nH]c5c4)c4c3CC3(CCCC3)C4)nc2)[nH]1)C(C)C [Example 21] | 1 to 10 | 0.001 to 0.1 | 
13 | COC(=O)N[C@H](C(=O)N1C[C@@H](C)C[C@H]1c1ncc(-c2ccc(-c3ccc(-c4cnc([C@@H]5C[C@H](C)CN5C(=O)[C@@H](NC(=O)OC)C(C)C)[nH]4)c4c3CC3(CCCCC3)C4)cc2)[nH]1)C(C)C [Example 18] |  | 0.001 to 0.1 | > 10
14 | COC(=O)N[C@H](C(=O)N1CCC[C@H]1c1nc2ccc(-c3ccc(-c4ccc5nc([C@@H]6CCCN6C(=O)[C@@H](NC(=O)OC)C(C)C)[nH]c5c4)c4c3CC3(CCCCC3)C4)cc2[nH]1)C(C)C [Example 6] | 0.001 to 0.1 | 0.001 to 0.1 | 
15 | COC(=O)N[C@H](C(=O)N1CCC[C@H]1c1ncc(-c2ccc(-c3ccc(-c4cnc([C@@H]5CCCN5C(=O)[C@@H](NC(=O)OC)C(C)C)[nH]4)c4c3C(=O)C3(CCCC3)C4)cc2)[nH]1)C(C)C [Example 37] | 1 to 10 | 1 to 10 | 
16 | COC(=O)NC(C(=O)N1CC2(C[C@H]1c1ncc(-c3ccc(-c4ccc(-c5cnc([C@@H]6CCCN6C(=O)[C@@H](NC(=O)OC)C(C)C)[nH]5)c5c4CC4(CCCC4)C5)cc3)[nH]1)OCCO2)C(C)C (stereo partly shown) [Example 51] | > 10 | 0.001 to 0.1 | 
17 | COC(=O)N[C@H](C(=O)N1CCC[C@H]1c1ncc(-c2ccc(-c3ccc(-c4cnc([C@@H]5CCCN5C(=O)[C@@H](NC(=O)OC)C(C)C)[nH]4)c4c3CC3(CCCC3)C4)cc2)[nH]1)C(C)C [Example 14] | > 10 | 0.001 to 0.1 | 
18 | COC(=O)N[C@H](C(=O)N1C(c2ncc(-c3ccc(-c4ccc(-c5ccc6nc([C@@H]7CC8CC8N7C(=O)[C@@H](NC(=O)OC)C(C)C)[nH]c6c5)c5c4CC4(CCCC4)C5)cc3)[nH]2)CC2CC21)C(C)C (stereo partly shown) [Example 54] | 0.101 to 1 | 0.001 to 0.1 | 
19 | COC(=O)N[C@H](C(=O)N1CCC[C@H]1c1nc2ccc(-c3ccc(-c4ccc5nc([C@@H]6CCCN6C(=O)[C@@H](NC(=O)OC)C(C)C)[nH]c5c4)c4c3CC3(CCCC3)C4)cc2[nH]1)C(C)C [Example 22] | 0.001 to 0.1 | 0.001 to 0.1 | 
20 | COC(=O)N[C@H](C(=O)N1CCC[C@H]1c1ncc(C#Cc2ccc(C#Cc3cnc([C@@H]4CCCN4C(=O)[C@@H](NC(=O)OC)C(C)C)[nH]3)c3c2CC2(CCCC2)C3=O)[nH]1)C(C)C [Example 2] | > 10 | 0.101 to 1 | 
21 | COC(=O)N[C@H](C(=O)N1C[C@H](F)C[C@H]1c1ncc(-c2ccc(-c3ccc(-c4cnc([C@@H]5C[C@@H](F)CN5C(=O)[C@@H](NC(=O)OC)C(C)C)[nH]4)c4c3CC3(CCCC3)C4)cc2)[nH]1)C(C)C [Example 29] | 0.001 to 0.1 | 0.001 to 0.1 | 
22 | COC(=O)N[C@H](C(=O)N1CCC[C@H]1c1ncc(-c2ccc(-c3ccc(-c4ccc5nc([C@@H]6CCCN6C(=O)[C@@H](NC(=O)OC)C(C)C)[nH]c5c4)c4c3CC3(CCCC3)C4)cc2)[nH]1)C(C)C [Example 23] | 0.001 to 0.1 | 0.001 to 0.1 | 
23 | COC(=O)N[C@H](C(=O)N1C[C@@H](C)C[C@H]1c1ncc(-c2ccc(-c3ccc(-c4ccc(-c5cnc([C@@H]6C[C@H](C)CN6C(=O)[C@@H](NC(=O)OC)C(C)C)[nH]5)cc4)c4c3CC3(CCCC3)C4)cc2)[nH]1)C(C)C [Example 40] | 1 to 10 | 0.001 to 0.1 | 
24 | COC(=O)N[C@H](C(=O)N1CCC[C@H]1c1nc2ccc(-c3ccc(-c4ccc5nc([C@@H]6CCCN6C(=O)[C@@H](NC(=O)OC)C(C)C)[nH]c5c4)c4c3CC3(CCC(C)CC3)C4=O)cc2[nH]1)C(C)C (stereo partly shown) [Example 3] | 0.001 to 0.1 | 0.001 to 0.1 | 
25 | COC(=O)N[C@H](C(=O)N1CCCC1C(=O)Nc1cccc(-c2ccc(-c3ccc(-c4cnc([C@@H]5CCCN5C(=O)[C@@H](NC(=O)OC)C(C)C)[nH]4)cc3)c3c2CC2(CCCC2)C3)c1)C(C)C (stereo partly shown) [Example 56] | 1 to 10 | 0.001 to 0.1 | 
26 | COC(=O)N[C@H](C(=O)N1CCC[C@H]1c1ncc(-c2ccc3cc(-c4ccc(-c5cnc([C@@H]6CCCN6C(=O)[C@@H](NC(=O)OC)C(C)C)[nH]5)c5c4CC4(CCCCC4)C5)ccc3c2)[nH]1)C(C)C [Example 49] | 1 to 10 | 0.001 to 0.1 | 
